Reference: ChEMBL document CHEMBL1201861, “Genomics of Drug Sensitity in Cancer screening data, Wellcome Trust Sanger Institute”

Key:
Experiment in all cases: cells
COLO-800 = assay type: functional, cell-based, Homo sapiens; details: Homo sapiens, COLO-800;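 further: growth inhibition of COLO-800 cells, read out with a cell viability assay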
Description: SANGER: Inhibition of human COLO-800 cell growth in a cell viability assay.

Calu-6 = assay type: functional, cell-based, Homo sapiens; details: Homo sapiens, Calu-6;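 further: growth of human Calu-6 cells, read out by a cell viability assay, IC50 marking inhibition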
Description: SANGER: Inhibition of human Calu-6 cell growth in a cell viability assay.

D-263MG = assay type: functional, cell-based, Homo sapiens; details: Homo sapiens, D-263MG
Description: SANGER: Inhibition of human D-263MG cell growth in a cell viability assay.

D-502MG = assay type: functional, cell-based, Homo sapiens; details: Homo sapiens, D-502MG
Description: SANGER: Inhibition of human D-502MG cell growth in a cell viability assay.

DMS-114 = assay type: functional, cell-based, Homo sapiens; details: Homo sapiens, DMS-114
DOHH-2 = assay type: functional, cell-based, Homo sapiens; details: Homo sapiens, DOHH-2;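 further: growth inhibition of human DOHH-2 cells, read out with a cell viability assay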
Description: SANGER: Inhibition of human DOHH-2 cell growth in a cell viability assay.

EM-2 = assay type: functional, cell-based, Homo sapiens; details: Homo sapiens, EM-2;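 further: growth inhibition of EM-2 cells, read out with a cell viability assay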
Description: SANGER: Inhibition of human EM-2 cell growth in a cell viability assay.

ES7 = assay type: functional, cell-based, Homo sapiens; details: Homo sapiens, ES7;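 further: growth inhibition of cultured human ES7 cells, read out as cell viability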
Description: SANGER: Inhibition of human ES7 cell growth in a cell viability assay.

EW-11 = assay type: functional, cell-based, Homo sapiens; details: Homo sapiens, EW-11;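 further: growth inhibition of human EW-11 cells, measured with a cell viability assay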
Description: SANGER: Inhibition of human EW-11 cell growth in a cell viability assay.

EW-3 = assay type: functional, cell-based, Homo sapiens; details: Homo sapiens, EW-3;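 further: cell viability assay read-out, IC50 reflects inhibition of growth of the EW-3 cells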
Description: SANGER: Inhibition of human EW-3 cell growth in a cell viability assay.

HAL-01 = assay type: functional, cell-based, Homo sapiens; details: Homo sapiens, HAL-01;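 further: growth inhibition of human HAL-01 cells, read out with a cell viability assay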
Description: SANGER: Inhibition of human HAL-01 cell growth in a cell viability assay.

HD-MY-Z = assay type: functional, cell-based, Homo sapiens; details: Homo sapiens, HD-MY-Z;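 further: growth inhibition of HD-MY-Z cells, read out with a cell viability assay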
Description: SANGER: Inhibition of human HD-MY-Z cell growth in a cell viability assay.

HT = assay type: functional, cell-based, Homo sapiens; details: Homo sapiens, HT
Description: SANGER: Inhibition of human HT cell growth in a cell viability assay.

HT-144 = assay type: functional, cell-based, Homo sapiens; details: Homo sapiens, HT-144
Description: SANGER: Inhibition of human HT-144 cell growth in a cell viability assay.

J-RT3-T3-5 = assay type: functional, cell-based, Homo sapiens; details: Homo sapiens, J-RT3-T3-5;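 further: cell viability assay measuring growth inhibition of human J-RT3-T3-5 cells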
Description: SANGER: Inhibition of human J-RT3-T3-5 cell growth in a cell viability assay.

K5 = assay type: functional, cell-based, Homo sapiens; details: Homo sapiens, K5
Description: SANGER: Inhibition of human K5 cell growth in a cell viability assay.

KMOE-2 = assay type: functional, cell-based, Homo sapiens; details: Homo sapiens, KMOE-2;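 further: growth inhibition of human KMOE-2 cells, read out with a cell viability assay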
Description: SANGER: Inhibition of human KMOE-2 cell growth in a cell viability assay.

L-428 = assay type: functional, cell-based, Homo sapiens; details: Homo sapiens, L-428
Description: SANGER: Inhibition of human L-428 cell growth in a cell viability assay.

LNCaP-Clone-FGC = assay type: functional, cell-based, Homo sapiens; details: Homo sapiens, LNCaP-Clone-FGC
Description: SANGER: Inhibition of human LNCaP-Clone-FGC cell growth in a cell viability assay.

LOX IMVI = assay type: functional, cell-based, Homo sapiens; details: Homo sapiens, LOX IMVI
Description: SANGER: Inhibition of human LOXIMVI cell growth in a cell viability assay.

LS-411N = assay type: functional, cell-based, Homo sapiens; details: Homo sapiens, LS-411N
LXF-289 cell line = assay type: functional, cell-based, Homo sapiens; details: Homo sapiens, LXF-289
Description: SANGER: Inhibition of human LXF-289 cell growth in a cell viability assay.

MC116 = assay type: functional, cell-based, Homo sapiens; details: Homo sapiens, MC116;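 further: growth inhibition of MC116 cells, read out with a cell viability assay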
Description: SANGER: Inhibition of human MC116 cell growth in a cell viability assay.

MLMA = assay type: functional, cell-based, Homo sapiens; details: Homo sapiens, MLMA;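 further: growth inhibition of MLMA cells (human), determined through a cell viability readout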
Description: SANGER: Inhibition of human MLMA cell growth in a cell viability assay.

MV4-11 = assay type: functional, cell-based, Homo sapiens, MV-4-11; details: Homo sapiens, MV4-11;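 further: cell viability readout measuring growth inhibition of human MV-4-11 cells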
Description: SANGER: Inhibition of human MV-4-11 cell growth in a cell viability assay.

NCI-H1092 = assay type: functional, cell-based, Homo sapiens; details: Homo sapiens, NCI-H1092;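 further: cell growth inhibition measured with a cell viability assay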
Description: SANGER: Inhibition of human NCI-H1092 cell growth in a cell viability assay.

NCI-H1355 = assay type: functional, cell-based, Homo sapiens; details: Homo sapiens, NCI-H1355;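 further: growth inhibition of human NCI-H1355 cells, read out by a cell viability assay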
Description: SANGER: Inhibition of human NCI-H1355 cell growth in a cell viability assay.

NCI-H23 = assay type: functional, cell-based, Homo sapiens; details: Homo sapiens, NCI-H23;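 further: cell viability assay measuring growth inhibition of NCI-H23 cells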
Description: SANGER: Inhibition of human NCI-H23 cell growth in a cell viability assay.

NCI-H747 = assay type: functional, cell-based, Homo sapiens; details: Homo sapiens, NCI-H747;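 further: growth inhibition of human NCI-H747 cells, read out by a cell viability assay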
Description: SANGER: Inhibition of human NCI-H747 cell growth in a cell viability assay.

OVCAR-4 = assay type: functional, cell-based, Homo sapiens; details: Homo sapiens, OVCAR-4;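 further: growth inhibition of human OVCAR-4 cells, measured with a cell viability assay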
Description: SANGER: Inhibition of human OVCAR-4 cell growth in a cell viability assay.

RCC10RGB = assay type: functional, cell-based, Homo sapiens; details: Homo sapiens, RCC10RGB;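 further: growth inhibition of human RCC10RGB cells, read out by a cell viability assay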
Description: SANGER: Inhibition of human RCC10RGB cell growth in a cell viability assay.

RH-1 = assay type: functional, cell-based, Homo sapiens; details: Homo sapiens, RH-1;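 further: growth inhibition of human RH-1 cells, read out with a cell viability assay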
Description: SANGER: Inhibition of human RH-1 cell growth in a cell viability assay.

RKO = assay type: functional, cell-based, Homo sapiens; details: Homo sapiens, RKO;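 further: growth inhibition of human RKO cells, read out with a cell viability assay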
Description: SANGER: Inhibition of human RKO cell growth in a cell viability assay.

SF-126 = assay type: functional, cell-based, Homo sapiens; details: Homo sapiens, SF-126;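 further: growth inhibition of human SF126 cells, read out with a cell viability assay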
Description: SANGER: Inhibition of human SF126 cell growth in a cell viability assay.

SJSA-1 = assay type: functional, cell-based, Homo sapiens; details: Homo sapiens, SJSA-1;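 further: growth inhibition of human SJSA-1 cells, read out through a cell viability measurement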
Description: SANGER: Inhibition of human SJSA-1 cell growth in a cell viability assay.

SK-LMS-1 = assay type: functional, cell-based, Homo sapiens; details: Homo sapiens, SK-LMS-1;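 further: growth inhibition of human SK-LMS-1 cells, read out with a cell viability assay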
Description: SANGER: Inhibition of human SK-LMS-1 cell growth in a cell viability assay.

SNB-75 = assay type: functional, cell-based, Homo sapiens; details: Homo sapiens, SNB-75;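 further: cell viability assay measuring growth inhibition of human SNB-75 cells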
Description: SANGER: Inhibition of human SNB75 cell growth in a cell viability assay.

TE-1 = assay type: functional, cell-based, Homo sapiens; details: Homo sapiens, TE-1
Description: SANGER: Inhibition of human TE-1 cell growth in a cell viability assay.

A498 = assay type: functional, cell-based, Homo sapiens; details: Homo sapiens, A498;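 further: growth inhibition of human A498 cells, read out with a cell viability assay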
Description: SANGER: Inhibition of human A498 cell growth in a cell viability assay.

A704 = assay type: functional, cell-based, Homo sapiens; details: Homo sapiens, A704;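 further: growth inhibition of human A704 cells, read out with a cell viability assay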
Description: SANGER: Inhibition of human A704 cell growth in a cell viability assay.

BB65-RCC = assay type: functional, cell-based, Homo sapiens; details: Homo sapiens, BB65-RCC;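 further: growth inhibition of the cell line, measured with a cell viability assay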
Description: SANGER: Inhibition of human BB65-RCC cell growth in a cell viability assay.

BV-173 = assay type: functional, cell-based, Homo sapiens; details: Homo sapiens, BV-173
Description: SANGER: Inhibition of human BV-173 cell growth in a cell viability assay.

C8166 = assay type: functional, cell-based, Homo sapiens; details: Homo sapiens, C8166;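 further: growth inhibition of human C8166 cells measured by a cell viability assay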
Description: SANGER: Inhibition of human C8166 cell growth in a cell viability assay.

TE-10 = assay type: functional, cell-based, Homo sapiens; details: Homo sapiens, TE-10;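 further: growth inhibition of TE-10 cells, measured by a cell viability assay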
Description: SANGER: Inhibition of human TE-10 cell growth in a cell viability assay.

TE-11 = assay type: functional, cell-based, Homo sapiens; details: Homo sapiens, TE-11;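 further: growth inhibition of human TE-11 cells, read out by a cell viability assay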
Description: SANGER: Inhibition of human TE-11 cell growth in a cell viability assay.

TGW = assay type: functional, cell-based, Homo sapiens; details: Homo sapiens, TGW;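 further: growth inhibition of human TGW cells, read out with a cell viability assay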
Description: SANGER: Inhibition of human TGW cell growth in a cell viability assay.

TK-10 = assay type: functional, cell-based, Homo sapiens; details: Homo sapiens, TK-10;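 further: growth inhibition of TK-10 cells, read out in a cell viability assay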
Description: SANGER: Inhibition of human TK10 cell growth in a cell viability assay.

no-11 = assay type: functional, cell-based, Homo sapiens; details: Homo sapiens;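 further: growth inhibition of human NO-11 cells, read out with a cell viability assay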
Description: SANGER: Inhibition of human no-11 cell growth in a cell viability assay.

Structure (SMILES): COc1cc2ncn(-c3cc(OCc4ccccc4C(F)(F)F)c(C(N)=O)s3)c2cc1OC [GW843682X]
- IC50 (COLO-800): > 256 nM
- IC50 (Calu-6): 36.7 nM
- IC50 (D-263MG): > 256 nM
- IC50 (D-502MG): > 256 nM
- IC50 (DMS-114): 122 nM
- IC50 (DOHH-2): 60.8 nM
- IC50 (EM-2): 111 nM
- IC50 (ES7): > 256 nM
- IC50 (EW-11): > 256 nM
- IC50 (EW-3): 66.3 nM
- IC50 (HAL-01): 80.8 nM
- IC50 (HD-MY-Z): 66.3 nM
- IC50 (HT): 128 nM
- IC50 (HT-144): 16.4 nM
- IC50 (J-RT3-T3-5): 21.2 nM
- IC50 (K5): 72.7 nM
- IC50 (KMOE-2): 231 nM
- IC50 (L-428): 110 nM
- IC50 (LNCaP-Clone-FGC): > 256 nM
- IC50 (LOX IMVI): 125 nM
- IC50 (LS-411N): 8 nM
- IC50 (LXF-289 cell line): 16.2 nM
- IC50 (MC116): 36.4 nM
- IC50 (MLMA): 24.9 nM
- IC50 (MV4-11): 25.9 nM
- IC50 (NCI-H1092): > 256 nM
- IC50 (NCI-H1355): 11.9 nM
- IC50 (NCI-H23): > 256 nM
- IC50 (NCI-H747): 76.7 nM
- IC50 (OVCAR-4): 71.5 nM
- IC50 (RCC10RGB): > 256 nM
- IC50 (RH-1): 242 nM
- IC50 (RKO): 17.2 nM
- IC50 (SF-126): 138 nM
- IC50 (SJSA-1): 32.7 nM
- IC50 (SK-LMS-1): 73.4 nM
- IC50 (SNB-75): 97.9 nM
- IC50 (TE-1): 14.3 nM
- IC50 (A498): > 256 nM
- IC50 (A704): > 256 nM
- IC50 (BB65-RCC): 68.9 nM
- IC50 (BV-173): 17.7 nM
- IC50 (C8166): > 256 nM
- IC50 (TE-10): 12.6 nM
- IC50 (TE-11): 10.7 nM
- IC50 (TGW): 34.7 nM
- IC50 (TK-10): 90.9 nM
- IC50 (no-11): 178 nM

Structure (SMILES): CC(=O)O[C@H]1C(=O)[C@@]2(C)[C@H]([C@H](OC(=O)c3ccccc3)[C@]3(O)C[C@H](OC(=O)[C@H](O)[C@@H](NC(=O)c4ccccc4)c4ccccc4)C(C)=C1C3(C)C)[C@]1(OC(C)=O)CO[C@@H]1C[C@@H]2O [PACLITAXEL]
- IC50 (COLO-800): > 102 nM
- IC50 (Calu-6): 10.1 nM
- IC50 (D-263MG): > 102 nM
- IC50 (D-502MG): > 102 nM
- IC50 (DMS-114): 25 nM
- IC50 (DOHH-2): 12 nM
- IC50 (EM-2): > 102 nM
- IC50 (ES7): > 102 nM
- IC50 (EW-11): > 102 nM
- IC50 (EW-3): > 102 nM
- IC50 (HAL-01): > 102 nM
- IC50 (HD-MY-Z): 11.6 nM
- IC50 (HT): 80.9 nM
- IC50 (HT-144): 8 nM
- IC50 (J-RT3-T3-5): 23.8 nM
- IC50 (K5): 72.3 nM
- IC50 (KMOE-2): > 102 nM
- IC50 (L-428): > 102 nM
- IC50 (LNCaP-Clone-FGC): > 102 nM
- IC50 (LOX IMVI): 70.3 nM
- IC50 (LS-411N): 7.17 nM
- IC50 (LXF-289 cell line): 8.18 nM
- IC50 (MC116): 2.89 nM
- IC50 (MLMA): 74.6 nM
- IC50 (MV4-11): 4.75 nM
- IC50 (NCI-H1092): > 102 nM
- IC50 (NCI-H1355): 9.14 nM
- IC50 (NCI-H23): > 102 nM
- IC50 (NCI-H747): 29.3 nM
- IC50 (OVCAR-4): 9.04 nM
- IC50 (RCC10RGB): > 102 nM
- IC50 (RH-1): 38.2 nM
- IC50 (RKO): 2.98 nM
- IC50 (SF-126): 61.3 nM
- IC50 (SJSA-1): 17.7 nM
- IC50 (SK-LMS-1): 4.01 nM
- IC50 (SNB-75): 15.4 nM
- IC50 (TE-1): 6.06 nM
- IC50 (A498): > 102 nM
- IC50 (A704): > 102 nM
- IC50 (BB65-RCC): 25.3 nM
- IC50 (BV-173): 25.5 nM
- IC50 (C8166): > 102 nM
- IC50 (TE-10): 1.54 nM
- IC50 (TE-11): 1.23 nM
- IC50 (TGW): 86.1 nM
- IC50 (TK-10): 33.6 nM
- IC50 (no-11): 34.8 nM

Structure (SMILES): COc1cc(-c2nn([C@H]3CC[C@H](N4CCN(C(C)=O)CC4)CC3)c3ncnc(N)c23)ccc1NC(=O)c1cc2ccccc2n1C
- IC50 (COLO-800): > 5120 nM
- IC50 (Calu-6): > 5120 nM
- IC50 (D-263MG): > 5120 nM
- IC50 (D-502MG): > 5120 nM
- IC50 (DMS-114): > 5120 nM
- IC50 (DOHH-2): 39.1 nM
- IC50 (EM-2): 337 nM
- IC50 (ES7): > 5120 nM
- IC50 (EW-11): > 5120 nM
- IC50 (EW-3): > 5120 nM
- IC50 (HAL-01): 3080 nM
- IC50 (HD-MY-Z): 4880 nM
- IC50 (HT): > 5120 nM
- IC50 (HT-144): > 5120 nM
- IC50 (J-RT3-T3-5): > 5120 nM
- IC50 (K5): > 5120 nM
- IC50 (KMOE-2): > 5120 nM
- IC50 (L-428): > 5120 nM
- IC50 (LNCaP-Clone-FGC): > 5120 nM
- IC50 (LOX IMVI): > 5120 nM
- IC50 (LS-411N): > 5120 nM
- IC50 (LXF-289 cell line): 757 nM
- IC50 (MC116): 856 nM
- IC50 (MLMA): 209 nM
- IC50 (MV4-11): > 5120 nM
- IC50 (NCI-H1092): > 5120 nM
- IC50 (NCI-H1355): > 5120 nM
- IC50 (NCI-H23): > 5120 nM
- IC50 (NCI-H747): 2860 nM
- IC50 (OVCAR-4): 1040 nM
- IC50 (RCC10RGB): > 5120 nM
- IC50 (RH-1): > 5120 nM
- IC50 (RKO): 3460 nM
- IC50 (SF-126): > 5120 nM
- IC50 (SJSA-1): > 5120 nM
- IC50 (SK-LMS-1): > 5120 nM
- IC50 (SNB-75): 340 nM
- IC50 (TE-1): 2050 nM
- IC50 (A498): > 5120 nM
- IC50 (A704): 1150 nM
- IC50 (BB65-RCC): 5060 nM
- IC50 (BV-173): 345 nM
- IC50 (C8166): > 5120 nM
- IC50 (TE-10): 2360 nM
- IC50 (TE-11): 1580 nM
- IC50 (TGW): > 5120 nM
- IC50 (TK-10): 596 nM
- IC50 (no-11): > 5120 nM
